The source of these data is PMC6390472, “‘Second-generation’ 1,2,3-triazole-based inhibitors of Porphyromonas gingivalis adherence to oral streptococci and biofilm formation” (MedChemComm, 2019).

Where only a bound is given, the exact number is not on record here.

A word on the IC50: it is the point on the concentration scale where inhibition reaches its midpoint.

The assay relates to P. gingivalis adherence to S. gordonii. Kind of assay: Biofilm model of P. gingivalis adherence to S. gordonii (confocal, green/red fluorescence ratio). In kind it is cell-based, P. gingivalis ATCC33277 / S. gordonii DL-1. Particulars: inhibition of P. gingivalis adherence to S. gordonii; concentration that reduced ratio of green to red fluorescence by 50%; tested 0–60 μM. As for the experimental part:
P. gingivalis ATCC33277 was grown in reduced trypticase soy broth (Difco) supplemented with 0.5 percent yeast extract, 1 μg mL^–1 menadione, and 5 μg mL^–1 hemin. Twenty five milliliters of medium were reduced for 24 h under anaerobic conditions by equilibrating in an atmosphere consisting of 10% CO2, 10% H2, and 80% N2. Following equilibration, P. gingivalis was inoculated in the medium and grown for 48 h at 37 °C under anaerobic conditions. S. gordonii DL-1 (1) was cultured aerobically without shaking in brain heart infusion (BHI) broth supplemented with 1 percent yeast extract for 16 hours at 37 °C. For some compounds that inhibited P. gingivalis adherence to S. gordonii, we determined their effect on planktonic growth of P. gingivalis and S. gordonii. The appropriate growth medium (10 ml) was supplemented with 10 μl of a 40 mM compound stock solution in DMSO. After inoculation, broth cultures were incubated as described above and compared to cultures grown in medium that was supplemented only with 0.1% DMSO. The cell density of each culture was determined by measuring the optical density at 600 nm (O.D.600nm) and the percent growth inhibition/stimulation was calculated using the following equation: [(O.D.600nm of the control/O.D.600nm of the culture grown in the presence of compound) – 1] × 100.
Two species biofilms were formed essentially as previously described.[39] To prepare bacterial cells for biofilm culture, 10 ml of an overnight S. gordonii culture was centrifuged at 5600 rpm for 5 min and the cell pellet was suspended in 1 mL sterile PBS. Subsequently, 20 μL of 5 mg ml^–1 hexidium iodide (Molecular Probes) was added to the cell suspension and incubated for 15 min with gentle shaking at room temperature in the dark. The labeled cells were centrifuged as described above, washed with phosphate-buffered saline (10 mM Na2HPO4, […], […], and 2.7 mM KCl, pH 7.2; [PBS]) and the cell pellet was suspended in PBS at a final O.D.600nm of 0.8. Similarly, 10 mL of a 48 h culture of P. gingivalis was centrifuged at 5600 rpm for 15 min, the cell pellet was suspended in 1 mL PBS and 20 μL of 5(6)-carboxyfluorescein N-hydroxysuccinimide ester (4 mg ml^–1, Molecular Probes, Inc.) was added. After incubation for 30 min with gentle shaking at room temperature in the dark, the suspension was centrifuged and washed as described above and suspended in PBS at a final O.D.600nm of 0.4. For biofilm cultures, 1 mL of labeled S. gordonii cells was added to each well of a 12-well microtiter plate (Greiner Bio-one) containing a circular coverslip (Fisher brand) and incubated in an anaerobic chamber with rotary shaking for 24 h at 37 °C. Unbound cells were removed by aspiration and 1 ml of labeled P. gingivalis cells containing the desired concentration of test compound was added and incubated under anaerobic conditions for 22 h at 37 °C. Test compounds were dissolved in dimethyl sulfoxide (DMSO) to generate 1000× stock solutions and were routinely tested over a final concentration range of 0–60 μM. 1 μL of the appropriate stock solution was added to each 1 mL aliquot of labeled P. gingivalis cells and incubated for 30 min at room temperature prior to adding the suspension to the microtiter plate wells. For control biofilms, 1 μL of DMSO was added to 1 mL of labeled P. gingivalis and incubated as described above.
To visualize P. gingivalis/S. gordonii biofilms, unbound P. gingivalis cells were removed by aspiration and coverslips were washed once with PBS. Biofilms were fixed by incubating the coverslips with 1 mL of 4% paraformaldehyde for 5 min followed by two washes with PBS. The coverslips were then removed, placed face down on a glass microscope slide containing a drop of antifade reagent (Life Technology) and sealed with nail polish. […]
With `CCN(CC)c1nc(-c2cn(-c3cccc(-c4nc(-c5ccc(F)cc5)c(-c5ccc(F)cc5)o4)c3)nn2)nc(N(CC)CC)n1` [Compound 92], the IC50 is over 60 µM.

As for `CCN(CC)c1nc(-c2cn(-c3ccc(-c4nc(-c5ccc(OC)cc5)c(-c5ccc(OC)cc5)o4)cc3)nn2)nc(N(CC)CC)n1` [Compound 97], the IC50 worked out at 36.6 µM.

Take `[O-][S+](Cc1nc(-c2ccccc2)c(-c2ccccc2)o1)c1ccc(-n2cc(-c3ccc(F)cc3)nn2)cc1` (centres unmarked) [Compound 29]: the IC50 was over 60 µM.

As to `COc1ccc(-c2nc(-c3ccc(-n4cc(-c5nc(Nc6ccccc6F)nc(Nc6ccccc6F)n5)nn4)cc3)oc2-c2ccc(OC)cc2)cc1` [Compound 107], the IC50 turned out to be 40 µM.

`O=S(=O)(Cc1nc(-c2ccccc2)c(-c2ccccc2)o1)c1ccc(-n2cc(-c3ccc(Oc4ccccc4)cc3)nn2)cc1` [Compound 44]: the IC50 worked out at 16.5 µM.

In the case of `COc1ccc(-c2nc(-c3cccc(-n4cc(-c5nc(Nc6ccc(F)cc6)nc(Nc6ccc(F)cc6)n5)nn4)c3)oc2-c2ccc(OC)cc2)cc1` [Compound 120], the IC50 is over 60 µM.

As to `Fc1ccc(Nc2nc(Nc3ccc(F)cc3)nc(-c3cn(-c4ccccc4-c4nc(-c5ccccc5)c(-c5ccccc5)o4)nn3)n2)cc1` [Compound 110], the half-maximal inhibitory concentration (IC50) is over 60 µM.

Consider `CCN(CC)c1nc(-c2cn(-c3cccc(-c4nc(-c5ccccc5)c(-c5ccccc5)o4)c3)nn2)nc(N(CC)CC)n1` [Compound 90], for which the IC50 worked out at 20.7 µM.

In the case of `Fc1ccccc1Nc1nc(Nc2ccccc2F)nc(-c2cn(-c3cccc(-c4nc(-c5ccc(Cl)cc5)c(-c5ccc(Cl)cc5)o4)c3)nn2)n1` [Compound 104], the IC50 worked out at 33.8 µM.

Regarding `Fc1ccccc1Nc1nc(Nc2ccccc2F)nc(-c2cn(-c3cccc(-c4nc(-c5ccco5)c(-c5ccco5)o4)c3)nn2)n1` [Compound 108], the IC50 was over 60 µM.

With `COc1ccc(-c2nc(-c3ccc(-n4cc(-c5nc(Nc6ccc(F)cc6)nc(Nc6ccc(F)cc6)n5)nn4)cc3)oc2-c2ccc(OC)cc2)cc1` [Compound 121], the IC50 is over 60 µM.

Regarding `COc1ccccc1-c1cn(-c2ccc(S(=O)(=O)Cc3nc(-c4ccccc4)c(-c4ccccc4)o3)cc2)nn1` [Compound 40], the IC50 came out at 13.1 µM.

Turning to `[O-][S+](Cc1nc(-c2ccccc2)c(-c2ccccc2)o1)c1ccc(-n2cc(-c3cc(C(F)(F)F)cc(C(F)(F)F)c3)nn2)cc1` (centres unmarked) [Compound 36], the half-maximal inhibitory concentration (IC50) was over 60 µM.

For `[O-][S+](Cc1nc(-c2ccccc2)c(-c2ccccc2)o1)c1ccc(-n2cc(-c3cccc(F)c3)nn2)cc1` (centres unmarked) [Compound 30], the IC50 was found to be 47.3 µM.

Take `COc1ccccc1-c1cn(-c2ccc([S+]([O-])Cc3nc(-c4ccc(F)cc4)c(-c4ccc(F)cc4)o3)cc2)nn1` (centres unmarked) [Compound 48]: the IC50 is 7.2 µM.

Regarding `COc1ccc2cc(-c3cn(-c4ccc([S+]([O-])Cc5nc(-c6ccccc6)c(-c6ccccc6)o5)cc4)nn3)ccc2c1` (centres unmarked) [Compound 33], the IC50 was over 60 µM.

For the molecule `O=S(=O)(Cc1nc(-c2ccccc2)c(-c2ccccc2)o1)c1ccc(-n2cc(-c3ccc(F)cc3)nn2)cc1` [Compound 38], the IC50 amounted to 15.7 µM.

Consider `CCCCCc1ccc(-c2cn(-c3ccc(S(=O)(=O)Cc4nc(-c5ccccc5)c(-c5ccccc5)o4)cc3)nn2)cc1` [Compound 43], for which the IC50 came to 36.6 µM.

For `CCN(CC)c1nc(-c2cn(-c3cccc(-c4nc(-c5ccc(OC)cc5)c(-c5ccc(OC)cc5)o4)c3)nn2)nc(N(CC)CC)n1` [Compound 96], the IC50 was over 60 µM.

As for `Fc1ccc(Nc2nc(Nc3ccc(F)cc3)nc(-c3cn(-c4ccc(-c5nc(-c6ccccc6)c(-c6ccccc6)o5)cc4)nn3)n2)cc1` [Compound 112], the IC50 is over 60 µM.

Regarding `O=S(=O)(Cc1nc(-c2ccccc2)c(-c2ccccc2)o1)c1ccc(-n2cc(-c3ccccc3C(F)(F)F)nn2)cc1` [Compound 41], the IC50 is over 60 µM.

Regarding `CCN(CC)c1nc(-c2cn(-c3ccc(-c4nc(-c5ccccc5)c(-c5ccccc5)o4)cc3)nn2)nc(N(CC)CC)n1` [Compound 91], the IC50 is over 60 µM.

`O=S(=O)(Cc1nc(-c2ccccc2)c(-c2ccccc2)o1)c1ccc(-n2cc(-c3cccc(F)c3)nn2)cc1` [Compound 39]: the IC50 is 33.6 µM.

As to `[O-][S+](Cc1nc(-c2ccc(F)cc2)c(-c2ccc(F)cc2)o1)c1ccc(-n2cc(-c3cccc(F)c3)nn2)cc1` (centres unmarked) [Compound 46], the IC50 was 5.3 µM.

For the molecule `COc1ccccc1-c1cn(-c2ccc([S+]([O-])Cc3nc(-c4ccccc4)c(-c4ccccc4)o3)cc2)nn1` (centres unmarked) [Compound 31], the IC50 was over 60 µM.

For `O=S(=O)(Cc1nc(-c2ccccc2)c(-c2ccccc2)o1)c1ccc(-n2cc(-c3cc(C(F)(F)F)cc(C(F)(F)F)c3)nn2)cc1` [Compound 45], the IC50 is 38.5 µM.

On to `Fc1ccc(Nc2nc(Nc3ccc(F)cc3)nc(-c3cn(-c4cccc(-c5nc(-c6ccco6)c(-c6ccco6)o5)c4)nn3)n2)cc1` [Compound 123], for which the IC50 came out at 8 µM.

Consider `CCN(CC)c1nc(-c2cn(-c3cccc(-c4nc(-c5ccc(Cl)cc5)c(-c5ccc(Cl)cc5)o4)c3)nn2)nc(N(CC)CC)n1` [Compound 94], for which the concentration for half-maximal inhibition (IC50) amounted to 16 µM.

Regarding `O=S(=O)(Cc1nc(-c2ccc(Cl)cc2)c(-c2ccc(Cl)cc2)o1)c1ccc(-n2cc(-c3cccc(F)c3)nn2)cc1` [Compound 55], the IC50 stood at 18.2 µM.

Take `[O-][S+](Cc1nc(-c2ccc(Cl)cc2)c(-c2ccc(Cl)cc2)o1)c1ccc(-n2cc(-c3ccc(F)cc3)nn2)cc1` (centres unmarked) [Compound 50]: the IC50 is 39.8 µM.

Turning to `Fc1ccc(Nc2nc(Nc3ccc(F)cc3)nc(-c3cn(-c4cccc(-c5nc(-c6ccc(F)cc6)c(-c6ccc(F)cc6)o5)c4)nn3)n2)cc1` [Compound 114], the IC50 was over 60 µM.

As for `[O-][S+](Cc1nc(-c2ccccc2)c(-c2ccccc2)o1)c1ccc(-n2cc(-c3cccnc3)nn2)cc1` (centres unmarked) [Compound 28, 4,5-Diphenyl-2-(((4-(4-(pyridin-3-yl)-1H-1,2,3-triazol-1-yl)phenyl)sulfinyl)methyl) oxazole], the IC50 was over 60 µM.

In the case of `Fc1ccc(Nc2nc(Nc3ccc(F)cc3)nc(-c3cn(-c4ccc(-c5nc(-c6ccc(Cl)cc6)c(-c6ccc(Cl)cc6)o5)cc4)nn3)n2)cc1` [Compound 118], the half-inhibitory concentration (IC50) came to 13.3 µM.

With `Fc1ccccc1Nc1nc(Nc2ccccc2F)nc(-c2cn(-c3ccc(-c4nc(-c5ccccc5)c(-c5ccccc5)o4)cc3)nn2)n1` [Compound 101], the IC50 is over 60 µM.

Regarding `Fc1ccccc1Nc1nc(Nc2ccccc2F)nc(-c2cn(-c3ccc(-c4nc(-c5ccc(Cl)cc5)c(-c5ccc(Cl)cc5)o4)cc3)nn2)n1` [Compound 105], the IC50 was over 60 µM.

`[O-][S+](Cc1nc(-c2ccc(Cl)cc2)c(-c2ccc(Cl)cc2)o1)c1ccc(-n2cc(-c3cccc(F)c3)nn2)cc1` (centres unmarked) [Compound 49]: the IC50 worked out at 15.1 µM.

Regarding `O=S(=O)(Cc1nc(-c2ccc(F)cc2)c(-c2ccc(F)cc2)o1)c1ccc(-n2cc(-c3cccc(F)c3)nn2)cc1` [Compound 52], the IC50 is 40 µM.

Take `COc1ccc2cc(-c3cn(-c4ccc(S(=O)(=O)Cc5nc(-c6ccccc6)c(-c6ccccc6)o5)cc4)nn3)ccc2c1` [Compound 42]: the IC50 is over 60 µM.

On to `COc1ccc(-c2nc(-c3cccc(-n4cc(-c5nc(Nc6ccccc6F)nc(Nc6ccccc6F)n5)nn4)c3)oc2-c2ccc(OC)cc2)cc1` [Compound 106], for which the IC50 is over 60 µM.

Regarding `COc1ccc(-c2nc(-c3ccccc3-n3cc(-c4nc(Nc5ccc(F)cc5)nc(Nc5ccc(F)cc5)n4)nn3)oc2-c2ccc(OC)cc2)cc1` [Compound 119], the IC50 was over 60 µM.

For `O=S(=O)(Cc1nc(-c2ccccc2)c(-c2ccccc2)o1)c1ccc(-n2cc(-c3cccnc3)nn2)cc1` [Compound 37], the IC50 is over 60 µM.
